Results: patent US9050320B2, “Method for inducing lymphoid tissue and modulating intestinal homeostasis” (Institut Pasteur, priority 2009, dated 2015)

Key:
[1] = tested on: isolated lymphoid follicles (ILFs); test: ILF formation in germfree mice given peptidoglycans in the drinking water; assay type: in vivo
Experimental: Peptidoglycans. Peptidoglycan were purified from E. coli strain MC1061 as previously described ^32. Highly purified PGN (total of 100 mg) was digested with mutanolysin (Sigma) ^33 to generate the entire range of muropeptides present in E. coli PGN (Supplementary FIG. 3b). Soluble muropeptides were separated by reverse phase HPLC, and the N-acetylglucosamyl-β1,4-N-acetylmuramyl-L-alanyl-D-γ-glytamyl-meso-diaminopimelate-D-alanine (GMtetraDAP) was collected and purity tested by a new HPLC analysis (Supplementary FIG. 3b). The nature of the GMtetraDAP was confirmed by MALDI-TOF mass spectrometry analysis as previously described ^33. Muramyldipeptide (MDP) was purchased from Sigma. Mice received MDP or GMtetraDAP in drinking water at a fixed concentration of 1 μM from the age of 2 weeks (Experiment I) or form birth (experiment II) for different periods of time.
Immunofluorescence histology. Intestines were opened and washed several times in PBS before fixation overnight at 4° C. in a fresh solution of 4% paraformaldehyde (Sigma) in PBS. The samples were then washed 1 day in PBS, incubated in a solution of 30% sucrose (Sigma) in PBS until the samples sank, embedded in OCT compound 4583 (Sakura Finetek), frozen in a bath of isopentane cooled with liquid nitrogen and stocked at −80° C. Frozen blocs were cut at 8 μm thickness and sections collected onto Superfrost/Plus slides (VWR). Slides were dried 1 hour and processed for staining, or stocked at −80° C. For staining, slides were first hydrated in PBS-XG, (PBS containing 0.1% triton X-100 and 1% normal bovine serum, VWR) for 5 min and blocked with 10% bovine serum in PBS-XG for 1 hour at room temperature. […] Slides were examined under an Axiolmager M1 fluorescence microscope (Zeiss) equipped with a CCD camera and images were processed with AxioVision software (Zeiss). For the quantification of CPs and ILFs, 10-20 sections were cut at regular intervals through the whole thickness of flat ileal or colonic fragments of 2 cm in length and stained. CPs and ILFs were then counted under a fluorescence microscope.

[2] = tested on: isolated lymphoid follicles (ILFs); test: ILFs in SPF mice treated from birth with antibiotics in drinking water; assay type: in vivo; details: antibiotic in drinking water
Experimental: Antibodies, fusion proteins and antibiotics. Purified anti-CD11c (HL3) was purchased from BD Biosciences, phycoerythrin (PE)-, allophycocyanin (APC)- or biotin-conjugated anti-CD45R/B220 (RA3-6B2), and anti-CD45.2 (104) were purchased from eBiosciences, and purified anti-GFP (A-11122) and FITC-conjugated anti-rabbit polyclonal were purchased from Invitrogen. Neutralizing anti-CCL20 (114906) antibody was purchased from R&D Systems and 50-100 μg was injected i.p. in PBS twice a week. Human IgG1 and LTβR-Ig fusion protein have been previously described ^12; 100 μg protein was injected i.p. into pregnant mice 14.5 and 16.5 days after conception, or 50 μg protein was injected i.p. into newborn mice 1 day, 6 days and 12 days after birth, then 100 μg 15 days after birth. Vancomycin and colistin were purchased from Sigma and supplied to mice in the drinking water at a concentration of 500 mg/l and 1 g/l, respectively.
Immunofluorescence histology. […] Slides were examined under an Axiolmager M1 fluorescence microscope (Zeiss) equipped with a CCD camera and images were processed with AxioVision software (Zeiss). For the quantification of CPs and ILFs, 10-20 sections were cut at regular intervals through the whole thickness of flat ileal or colonic fragments of 2 cm in length and stained. CPs and ILFs were then counted under a fluorescence microscope.

[3] = tested on: isolated lymphoid follicles (ILFs); test: ILF formation in germfree mice reconstituted with bacteria; assay type: in vivo; details: adult germfree mice reconstituted, 8 weeks
Experimental: Bacterial strains and culture. ASF bacteria include the Gram^+Clostridium propionicum (ASF 356), Lactobacillus acidophilus (ASF 360), Lactobacillus murinus (ASF 361), Eubacterium plexicaudatum (ASF 492), Firmicutes sp. (ASF 500) and Clostridium sp. (ASF 502), the Gram^−Mucispirillum schaedleri (ASF 457) and Bacteroides distasonis (ASF 519) (Supplementary FIG. 2) ^13,34, and were obtained from Taconic. The bacteria were cultured in anaerobic conditions on Schaedler agar (Difco laboratories) supplemented with 5% sterile sheep blood (Biorad) in an anaerobic Glove chamber containing a 5% CO2, 10% H2 and 85% N2 atmosphere (Jacomex). The media were pre-reduced by placing them inside the chamber 2 days prior to inoculation of bacteria. Cultures were incubated in the chamber at 37° C. for different periods of time (1-5 days) depending on the bacterial strain. […]
Bacterial colonization of germfree mice. […] Fecal pellets from inoculated mice were assessed for colonization by microscopic examination of smears and quantified by serial dilutions of stool spread on Schaedler agar plates or by quantitative PCR (qPCR). […] Mice were colonized to similar levels by strains MC1061 and MHD79 (˜2.5×10^9 cfu/g of feces) and analyzed 8 weeks after bacterial reconstitution. […]

Euprymna scolopes = details: squid light organ; cited from earlier work

CC(=O)N[C@H]1[C@H](O[C@H]2[C@H](O[C@H](C)C(=O)N[C@@H](C)C(=O)N[C@H](CCC(=O)N[C@@H](CCC[C@@H](N)C(=O)O)C(=O)N[C@H](C)C(=O)O)C(=O)O)[C@@H](NC(C)=O)C(O)O[C@@H]2CO)O[C@H](CO)[C@@H](O)[C@@H]1O (stereo partly drawn) [GMtetraDAP, N-acetylglucosamyl-β1,4-N-acetylmuramyl-L-alanyl-D-γ-glytamyl-meso-diaminopimelate-D-alanine]
ILFs in sections from the ileum (histology) ([1]; 8 weeks old germ free mice, in drinking water from birth): ILFs were numerous and showed some level of follicular organization
ILFs in the colon ([1]; germfree mice, 1 μM in drinking water, 10 weeks of treatment starting from birth (Experiment II)): Significant numbers of ILFs were also detected
induction of ILFs in the ileum ([1]; germfree mice, 1 μM in drinking water, after 6 weeks of treatment): induced a significant number of ILFs, mostly iILFs

CN[C@H](CC(C)C)C(=O)N[C@H]1C(=O)N[C@@H](CC(N)=O)C(=O)N[C@H]2C(=O)N[C@H]3C(=O)N[C@H](C(=O)N[C@H](C(=O)O)c4cc(O)cc(O)c4-c4cc3ccc4O)[C@H](O)c3ccc(c(Cl)c3)Oc3cc2cc(c3O[C@@H]2O[C@H](CO)[C@@H](O)[C@H](O)[C@H]2O[C@H]2C[C@](C)(N)[C@H](O)[C@H](C)O2)Oc2ccc(cc2Cl)[C@H]1O [vancomycin, Vancomycin]
formation of ILFs [2]: formed significant numbers of ILFs, but lower numbers than in control mice

Lactobacillus acidophilus
induction of ileal and colonic ILFs [3]: induced no or few ILFs

colistin
formation of ILFs [2]: formed few ILFs

tracheal cytotoxin [TCT]
hemocyte infiltration of crypts, epithelial apoptosis and morphogenesis (Euprymna scolopes): recapitulated by TCT alone
